Experimental data taken from EP0229718A2, “Labelling blood cells” (AMERSHAM INTERNATIONAL plc, priority 1986, dated 1987).

How the values were obtained:
[1] = system: "mixed" leucocyte suspension; experiment: In vitro labelling of a mixed leucocyte suspension from patients (Example 6); assay type: cell-based
Method: (§1) Hexamethylpropylene-amineoxime (HMPAO) forms a lipid-soluble neutral complex with ^99mTc which is rapidly incorporated into leucocytes in vitro. In six patients with suspected or known inflammatory disease, a "mixed" leucocyte suspension isolated from 85 ml blood anticoagulated with acid-citrate-dextrose was labelled by ^99mTc-HMPAO with a mean efficiency of 47%, of which 78% was taken up by granulocytes. […] Four patients also received ¹¹¹In-labelled "pure" granulocytes.
(§2) This experiment is described in more detail in The Lancet, October 25 1986, pages 946-949.

inflammatory disease = experiment: Imaging of inflammatory disease in patients with labelled leucocytes (Example 6); assay type: in vivo
Method: as §1, §2

granulocyte recovery in blood (inflammatory disease; at 30-40 min, mean): 32%
SMILES: C/C(=N\[O-])[C@@H](C)[N-]CC(C)(C)C[N-][C@H](C)/C(C)=N/O.[O]=[99Tc+3] (racemic) [^99mTc-HMPAO]
retention of label in granulocytes in vitro ([1]; elution compared with other cell types): remained firmly labelled
share of the label taken up by granulocytes ([1]; of the cell-bound label): 78%
mean labelling efficiency ([1]; six patients, leucocytes from 85 ml blood anticoagulated with acid-citrate-dextrose): 47%
image detail compared with ¹¹¹In-labelled "pure" granulocytes (inflammatory disease; four patients also received ¹¹¹In-labelled granulocytes): comparable or superior to the ¹¹¹In images
detection of inflammatory disease by imaging (inflammatory disease; six patients, from 30 min (five patients) or 3 h (sixth), remained positive at 20-24 h): All six patients were positive for inflammatory disease
